Experimental data published in patent US5965533A, “Atrial natriuretic peptide (ANP) as an additive to peritoneal dialysis solutions” (Baxter International Inc., priority 1997, dated 1999).

Key:
rats = test: Intraperitoneally administered ANP in peritoneal dialysis solution, transport characteristics in rats, 4 hour dwell; format: in vivo, rat
Protocol: A first experiment was performed to assess the effect of intraperitoneal administered ANP on peritoneal dialysis transport characteristics in rats. In this study, a dose of 9 μg ANP/kg BW of rat was mixed in a base solution of 2.5% dextrose DIANEAL® solution. The rats were injected with 90 ml/kg BW of either the above solution with the ANP additive or an unaltered control DIANEAL® solution.
Blood samples were taken before and after the 4 hour dwell period. Dialysate samples were collected at the start of the dwell and every 2 hours thereafter. All samples were analyzed for urea nitrogen (UN), sodium (Na), glucose, protein (prtn), and osmolality (Osm). At the end of the 4 hour dwell period, the rats were sacrificed, the abdominal walls excised, and the effluents collected and weighed.
To prepare the above ANP solution, 250 cc of DIANEAL® PD-2 solution was transferred into a 250 ml empty bag (VIAFLEX®). 10 cc of DIANEAL® PD-2 solution was injected into a vial containing […] of ANF (atrial natriuretic factor--yANF,rat,28AA sold by Peninsula Laboratories, Inc.). 1.25 cc of the DIANEAL®/ANF solution was then withdrawn with a needle and syringe and injected into the 250 ml bag containing the DIANEAL® base solution through a 0.22 μm sterile filter. The bag was then enclosed with a sampling site coupler. The control solution was similarly transferred into a new 250 ml bag (VIAFLEX®) and enclosed with a sampling site coupler.

sheep = test: ANP in 4.25% dextrose DIANEAL peritoneal dialysis solution in conscious sheep, 6 hour dwell; format: in vivo; conditions: mean, n = 5
Protocol: In a second experiment performed on sheep, ANP was added to a 4.25% dextrose DIANEAL® solution to provide a final concentration of ANP in the solution of […]. The dialysis solution was then infused into the peritoneal cavity of the sheep in 50 ml/kg BW volumes. The dwell time periods were 6 hours; the sheep remained conscious.
wherein pl. vol. is plasma volume; Vo is the volume of the peritoneal cavity before the commencement of the dialysis; V6 is the volume of the peritoneal cavity after six hours; LFR is lymph flow rate; Bl. rec. is blood recovery; and PC rec. is peritoneal cavity recovery.

[1] = ANP as additive versus control DIANEAL solution, Table 1 and FIGS. 1 and 2
[2] = rat, protein, 9 μg ANP/kg BW, 4 hour, mean ± SD
[3] = rat, urea nitrogen, 9 μg ANP/kg BW, 4 hour, mean ± SD
[4] = ANP 1×10^31 7 M in 4.25% dextrose DIANEAL

Substance: atrial natriuretic peptide [ANP]
- effect on net ultrafiltration (in words) (rats; [1]): increases
- effect on sodium clearance (in words) (rats; [1]): increases
- nUF (net ultrafiltration) (rats; rat, 9 μg ANP/kg BW in 2.5% dextrose DIANEAL, 90 ml/kg BW i.p., 4 hour dwell, mean ± SD): 8.17 ± 0.52 mL
- Osm (osmolality) (rats; rat, 9 μg ANP/kg BW in 2.5% dextrose DIANEAL, 4 hour sample, mean ± SD): 308.0 ± 3.5 mOsm/kg
- D/D0 (glucose) (rats; rat, glucose, 9 μg ANP/kg BW, 4 hour, mean ± SD): 0.363 ± 0.024
- Clearance (prtn) (rats; [2]): 1.379 ± 0.117 µL/min
- D/P (prtn) (rats; [2]): 0.0106 ± 0.0009
- Clearance (Na) (rats; rat, sodium, 9 μg ANP/kg BW, 4 hour, mean ± SD): 0.1110 ± 0.0027 mL/min
- Clearance (UN) (rats; [3]): 0.106 ± 0.005 mL/min
- D/P (UN) (rats; [3]): 0.81 ± 0.04
- Fl. loss (sheep; [4]): 13.39 mL/kg
- LFR (lymph flow rate) (sheep; [4]): 6.45 mL/kg
- NUF (net ultra filtration) (sheep; [4]): 22.05 mL/kg
- PC rec. (peritoneal cavity recovery) (sheep; [4]): 82.12%
- Total rec. (sheep; [4]): 93.81%
- V6 (volume of the peritoneal cavity after six hours) (sheep; [4]): 0.07246 L/kg
- pl. vol. (plasma volume) (sheep; ANP in 4.25% dextrose DIANEAL, 50 ml/kg BW): 52.70 mL/kg
- Bl. rec. (blood recovery) (sheep; ANP in 4.25% dextrose DIANEAL): 11.69%
